Read-outs that look alike come from different tables or passages of the source.
Key:
A375 = assay: Colony growth assay, A375 (BRAF mutant positive control); type: cell-based; settings: Homo sapiens, A-375
Source text: (§1) FIG. 1. […] All other lines are BRAF wild-type and have activating mutations in RAS.
(§2) While oncogene-induced senescence due to overexpressed mutant RAS is an important tumor suppression mechanism, multiple variants of senescence exist (Ito, Y., et al. Trends Cell Biol 27:820-832 (2017); Lasry, A. & Ben-Neriah, Y. Trends Immunol 36:217-28 (2015); Ewald, J. A., et al. J Natl Cancer Inst 102:1536-46 (2010); Mooi, W. J. & Peeper, D.S. N Engl J Med. 355:1037-46 (2006)). With this in mind, experiments were conducted to determine whether paradoxical ERK activation, as driven by BRAFi exposure in the context of RAS-mutant cancers, could cause elevation of ERK pathway signaling to the point of causing senescence-like growth arrest akin to oncogene-induced senescence. To determine the effects of BRAFi treatment on RAS-mutant melanomas, a panel of four BRAFi were screened against eight RAS-mutant melanoma cell lines. the FDA-approved BRAFi vemurafenib, dabrafenib, encorafenib (Dummer, R., et al. J Clin Oncol 31(2013)), and the ‘paradox-breaker PLX8394, which was designed to elicit no paradoxical ERK activation (Zhang, C., et al. Nature 526:583-6 (2015)) were tested.

ICP 298 = assay: Colony growth assay, ICP 298; type: cell-based; settings: Homo sapiens, ICP 298, RAS Q61L
Source text: as §1, §2

Sk-mel-119 = assay: Colony growth assay, Sk-mel-119; type: cell-based; settings: Homo sapiens, Sk-mel-119, RAS Q61R
Source text: as §1, §2

Sk-mel-2 = assay: Colony growth assay, Sk-mel-2; type: cell-based; settings: Homo sapiens, Sk-mel-2, RAS Q61R
Source text: as §1, §2

501mel = assay: Colony growth assay, 501mel; type: cell-based; settings: Homo sapiens, RAS G12D
Source text: as §1, §2

GAK = assay: Colony growth assay, GAK; type: cell-based; settings: Homo sapiens
Source text: as §1, §2

MelJUSO = assay: Colony growth assay, MelJUSO; type: cell-based; settings: Homo sapiens, MEL-JUSO, RAS Q61L (HRASG13D)
Source text: as §1, §2

CP66 = assay: Colony growth assay, CP66; type: cell-based; settings: Homo sapiens, CP66, RAS Q61K
Source text: as §1, §2

WM1366 = assay: Colony growth assay, WM1366; type: cell-based; settings: Homo sapiens, WM1366, RAS Q61L
Source text: as §1, §2

[1] = system: RAS-mutant melanoma cell lines; assay: BRAFi screen against panel of RAS-mutant melanoma cell lines; type: cell-based, human; settings: for IC50: Homo sapiens, four 'BRAFi sensitive' RAS-mutant cell lines, read-out: IC50, growth inhibition
Source text: as §1, §2

[2] = in vivo; cited from earlier work
[3] = system: IL-6 secretion, 501 MEL melanoma cell lines; assay: IL-6 secreted in the media of 501 MEL cells; type: cell-based, human; settings: acute 24 hours or chronic 7 days, vs control-treated
Source text: Substantial increases in the secretion of this canonical senescence-associated cytokine are reliably measured in all settings, up to 3-fold in magnitude, showing essential features of the ERK-hyperactivation mediated senescence response.

[4] = system: NRASQ61R-mutant melanoma cells (C57BL/6); assay: Transplanted NRASQ61R-mutant melanoma model in C57BL/6 mice; type: in vivo, mouse; settings: dabrafenib 3.5 mg/kg/day, RMP1-14 thrice weekly, start day 7
Description: FIG. 11. Transplanted NRASQ61R-mutant melanoma cells (C57BL/6) regress when dabrafenib-induced PEASA is combined with anti-PD1 immunotherapy. 1 million melanoma cells were injected in both flanks of C57BL/6 mice and therapy started at 7 days. […] mice per condition across 2 independent trials; mean tumor volume +/−SEM.
Because senescence is associated with a specific inflammatory gene expression signature, RNAseq was used to characterize responsive NRAS-mutant cell lines (IPC298, SK-MEL-119) following BRAFi exposure.

[5] = system: IPC 298 and 501mel cell line xenografts; assay: IPC 298 and 501mel cell line xenografts in mice; type: in vivo, mouse; settings: 3.5 mg/kg daily; NOD/SCID gamma or athymic nude mice
Description: FIG. 4. […] (A) IPC 298 cell line xenografts were established in NOD/SCID gamma mice by co-injecting 1 million IPC 298 cells subcutaneously. Daily treatment with vehicle (n=20) or 3.5 mg/kg dabrafenib (n=20) was initiated at ‘Day 0,’ or 7 days post injection. Tumor volume was tracked by caliper measurement, calculated using V=½lw2. Student's t-test compares differences in tumor volumes at sacrifice in both conditions versus vehicle control (B) Representative image of mice from (A) at experimental endpoint. (C) Phospho-ERK western-blotting of tumor lysates from a short-term pharmacodynamic experiment from IPC 298 lysates harvested from mice treated orally with vehicle or 3.5 mg/kg dabrafenib for 5 days. (D) 501mel cell line xenografts were established in athymic nude mice by co-injecting 4 million 501mel cells mixed with 1 million normal dermal fibroblasts (NDF) per site. Mice were treated with vehicle (n=11) or 3.5 mg/kg dabrafenib (n=10), 12 days post injection. As engraftment with 501mel/NDF is inefficient, only tumors with diameters >3 mm at treatment initiation are detailed here. Student's t-test compares differences in tumor volumes at sacrifice in both conditions versus vehicle control. (E) Representative image of mice from (D) at experimental endpoint. […] Quantitative data represent at least three independent experiments. […]

[6] = cited from earlier work; for induction of cutaneous squamous cell carcinoma (cuSCC), patients: treated patients, averaged across multiple studies
[7] = A375, RAS WT (BRAFV600E), colony growth, read-out: IC50
[8] = GAK, RAS Q61K, colony growth, read-out: IC50

Row | SMILES | IC50 (A375; [7]) [nM] | IC50 (ICP 298) [nM] | IC50 (Sk-mel-119) [nM] | IC50 (Sk-mel-2) [nM] | IC50 (501mel) [nM] | IC50 (GAK; [8]) [nM] | IC50 (MelJUSO) [nM] | IC50 (CP66) [nM] | IC50 (WM1366) [nM] | IC50 [1] [nM] | plasma elimination half-life [2] | IC50 (A375) [nM] | increase in secretion of IL-6 [3] | tumor response (tumor volume) [4] | tumor growth in vivo [5] | induction of cutaneous squamous cell carcinoma (cuSCC), patients [6] [%] | IC50 (GAK) [nM] | cuSCC harboring activating RAS mutations ([6]; cuSCC from treated patients, 10-20% in sporadic cuSCC) | activity against RAS mutant cell lines ([1]; RAS mutant cell lines)
1 | COC(=O)N[C@@H](C)CNc1nccc(-c2cn(C(C)C)nc2-c2cc(Cl)cc(NS(C)(=O)=O)c2F)n1 [Encorafenib] | 0.71 | 0.9 | 0.49 | 550 | 7.5 | 1600 | 26 | 520 | > 2000 | < 100 | approximately 6 hours |  |  |  |  |  |  |  | 
2 | CC(C)(C)c1nc(-c2cccc(NS(=O)(=O)c3c(F)cccc3F)c2F)c(-c2ccnc(N)n2)s1 [Dabrafenib] |  | 31 | 1.8 | 240 | 21 | 700 | 100 | 1000 | > 5000 | < 100 |  | 2.5 | up to 3 fold | partial responses, but progressive disease | prevents RAS-mutant tumor growth | 6 |  |  | 
3 | CCCS(=O)(=O)Nc1ccc(F)c(C(=O)c2c[nH]c3ncc(-c4ccc(Cl)cc4)cc23)c1F [Vemurafenib] | 68 | 380 | 540 | 2500 | 3000 |  | > 6600 | > 6600 | > 6600 |  |  |  |  |  |  | 22 | 5300 | Approximately 60% | 
4 | O=C(c1c(F)ccc(NS(=O)(=O)N2CC[C@@H](F)C2)c1F)c1c[nH]c2ncc(-c3cnc(C4CC4)nc3)cc12 [PLX8394] | 180 | > 1000 | > 1000 | > 1000 | > 1000 | > 1000 | > 1000 | > 1000 | > 1000 |  |  |  |  |  |  |  |  |  | never showed activity
